The text below walks through data of US9237747B2, “Herbicidal compositions comprising 4-amino-3-chloro-5-fluoro-6-(4-chloro-2-fluoro-3-methoxyphenyl) pyridine-2-carboxylic acid or a derivative thereof and insecticides” (priority 2013, dated 2016).

Where two headings read alike, the source gives them in different places.

The subject of one experiment is DIGSA. The format is in vivo, Digitaria sanguinalis. The procedure: (§1) Seeds or nutlets of the desired test plant species were planted in a soil matrix prepared by mixing a loam or sandy loam soil (e.g., 28.6 percent silt, 18.8 percent clay, and 52.6 percent sand, with a pH of about 5.8 and an organic matter content of about 1.8 percent) and calcareous grit in an 80 to 20 ratio. The soil matrix was contained in plastic pots with a volume of 1 quart and a surface area of 83.6 square centimeters (cm^2). […] The plants were grown for 8-22 days in a greenhouse with an approximate 14 hour (h) photoperiod which was maintained at about 29° C. during the day and 26° C. during the night. Nutrients (Peters Excel® 15-5-15 5-Ca 2-Mg and iron chelate) were applied in the irrigation solution as needed and water was added on a regular basis. Supplemental lighting was provided with overhead metal halide 1000-Watt lamps as necessary. The plants were employed for testing when they reached the first through fourth true leaf stage.
(§2) Treatments consisted of the acid or esters of 4-amino-3-chloro-6-(4-chloro-2-fluoro-3-methoxyphenyl)-5-fluoropyridine-2-carboxylic acid (Compound A), each formulated as an SC (suspension concentrate), and various insecticidal components alone and in combination. Forms of compound A were applied on an acid equivalent basis.
(§3) For treatments comprised of formulated compounds, measured amounts of compounds were placed individually in 25 mL glass vials and diluted in a volume of 1.25% volume per volume (v/v) Agri-Dex® crop oil concentrate to obtain 12× stock solutions. […] Application solutions were prepared by adding an appropriate amount of each stock solution (e.g., 1 mL) and diluted to the appropriate final concentrations with the addition of […] of an aqueous mixture of 1.25% (v/v) crop oil concentrate so that the final spray solutions contained 1.25+/−0.05% (v/v) crop oil concentrate.
(§4) As required, additional water and/or 97:3 v/v acetone/DMSO was added to individual application solutions so that the final acetone and DMSO concentrations of the application solutions being compared were 8.1% and 0.25%, respectively.
(§5) All stock solutions and applications solutions were visually inspected for compound compatibility prior to application. Spray solutions were applied to the plant material with an overhead Mandel track sprayer equipped with 8002E nozzles calibrated to deliver 187 L/ha over an application area of 0.503 square meters (m^2) at a spray height of 18 to 20 inches (46 to 50 cm) above average plant canopy height. Control plants were sprayed in the same manner with the solvent blank.
(§6) The treated plants and control plants were placed in a greenhouse as described above and watered by sub-irrigation to prevent wash-off of the test compounds. After approximately 3 weeks, the condition of the test plants as compared to that of the untreated plants was determined visually and scored on a scale of 0 to 100 percent where 0 corresponds to no injury or growth inhibition and 100 corresponds to complete kill.
(§7) Colby's equation was used to determine the herbicidal effects expected from the mixtures (Colby, S. R. Calculation of the synergistic and antagonistic response of herbicide combinations. Weeds 1967, 15, 20-22.).
(§8) The following equation was used to calculate the expected activity of mixtures containing two active ingredients, A and B: Expected=A+B−(A×B/100)

The test system of a further experiment is ECHCG. The class given is in vivo, Echinochloa crus-galli. The procedure:
as §1, §2, §3, §4, §5, §6, §7, §8

A further experiment has as its system CYPES. The class given is in vivo, Cyperus esculentus. The procedure: as §1, §2, §3, §4, §5, §6, §7, §8
A further experiment relates to LEFCH. Kind of experiment: whole plant or invertebrate. The conditions noted are these: for pest or weed control at 140 g/ha / pest or weed control at 280 g/ha / pest or weed control at 560 g/ha: Dinebra chinensis, post-emergence, 528 h, read-out: Visual Weed Control (%) - 22 DAA LEFCH Obs. The format is in vivo, Leptochloa chinensis. The procedure:
as §1, §2, §3, §4, §5, §6, §7, §8

In a further experiment the test system is IPOHE. The format is in vivo, Ipomoea hederacea. On the procedure:
as §1, §2, §3, §4, §5, §6, §7, §8

Another experiment has as its system CYPIR. The format is in vivo, Cyperus iria.
From the text: (§9) Seeds or nutlets of the desired test plant species were planted in a soil matrix prepared by mixing a loam or sandy loam soil (e.g., 28.6 percent silt, 18.8 percent clay, and 52.6 percent sand, with a pH of about 5.8 and an organic matter content of about 1.8 percent) and calcareous grit in an 80 to 20 ratio. The soil matrix was contained in plastic pots with a volume of 1 quart and a surface area of 83.6 square centimeters (cm^2). When required to ensure good germination and healthy plants, a fungicide treatment and/or other chemical or physical treatment was applied. The plants were grown for 8-22 days in a greenhouse with an approximate 14 hour (h) photoperiod which was maintained at about 29° C. during the day and 26° C. during the night. Nutrients (Peters Excel® 15-5-15 5-Ca 2-Mg and iron chelate) were applied in the irrigation solution as needed and water was added on a regular basis. Supplemental lighting was provided with overhead metal halide 1000-Watt lamps as necessary. The plants were employed for testing when they reached the first through fourth true leaf stage.
as §2
(§10) Treatment requirements were calculated based upon the rates being tested, the concentration of active ingredient or acid equivalent in the formulation, and a 12 milliliter (mL) application volume at a rate of 187 liters per hectare (L/ha).
as §3, §4, §5, §6, §7, §8

The test system of the next experiment is BRAPP. Nature of the experiment: Postemergence foliar-applied weed control, direct-seeded rice (greenhouse). The class given is in vivo, Brachiaria platyphylla.
From the text: as §9, §2, §10, §3, §4, §5, §6, §7, §8

For the next experiment, the system named is LEFPA. The description is as above. The format is in vivo, Leptochloa panicoides.
From the text: as §9, §2, §10, §3, §4, §5, §6, §7, §8

Another experiment relates to LEFFA. The experiment is described as above. The format is in vivo, Leptochloa fascicularis. The conditions noted are these: 22 DAA.
From the text: as §9, §2, §10, §3, §4, §5, §6, §7, §8

Where [1] appears, read: 22 DAA, 140 g ai/ha alone, second part of Table 18.
The mark [2] stands for this setting: 22 DAA, 280 g ai/ha alone, second part of Table 18.
Where [3] appears, read: 22 DAA, 560 g ai/ha alone, second part of Table 18.

As to `CNC(=O)Oc1cccc2ccccc12` [Carbaryl, 1-naphthalenyl N-methylcarbamate], the “Visual Weed Control (%) - 20 DAA DIGSA Obs” value in the experiment on DIGSA (3 g ai/ha alone), in the experiment with DIGSA (6 g ai/ha alone), in the experiment with DIGSA (12 g ai/ha alone), in the experiment on DIGSA (24 g ai/ha alone), in the experiment on DIGSA (48 g ai/ha alone) and in the experiment on DIGSA (96 g ai/ha alone) was 0% each time. The “Visual Weed Control (%) - 20 DAA ECHCG Obs” value in the experiment with ECHCG (3 g ai/ha alone), in the experiment with ECHCG (6 g ai/ha alone) and in the experiment with ECHCG (12 g ai/ha alone) was 0% in each case. For the same compound, the “Visual Weed Control (%) - 20 DAA CYPES Obs” value in the experiment on CYPES (24 g ai/ha alone), in the experiment with CYPES (48 g ai/ha alone) and with CYPES (96 g ai/ha alone) was 0% in each case. Besides, the “Visual Weed Control (%) - 20 DAA LEFCH Obs” value with LEFCH (3 g ai/ha alone), in the experiment on LEFCH (6 g ai/ha alone) and in the experiment with LEFCH (12 g ai/ha alone) was 0% throughout. The “Visual Weed Control (%) - 20 DAA IPOHE Obs” value in the experiment on IPOHE (6 g ai/ha alone) turned out to be 0%; in the experiment with IPOHE (12 g ai/ha alone) it was 10%. Moreover, the “Visual Weed Control (%) - 20 DAA CYPIR Obs” value with CYPIR (3 g ai/ha alone), with CYPIR (6 g ai/ha alone) and in the experiment with CYPIR (12 g ai/ha alone) was 0% each time. In addition, the “Visual Weed Control (%) - 20 DAA BRAPP Obs” value with BRAPP (3 g ai/ha alone), with BRAPP (6 g ai/ha alone) and in the experiment on BRAPP (12 g ai/ha alone) was 0% each time.

Regarding `CCOC(=O)CC(SP(=S)(OC)OC)C(=O)OCC` (stereo not drawn) [Malathion, S-1,2-bis(ethoxycarbonyl)ethyl O,O-dimethyl phosphorodithioate], the “Visual Weed Control (%) - 22 DAA DIGSA Obs” value in the experiment on DIGSA (22 DAA, 140 g ai/ha alone) is on record as 0%; in the experiment with DIGSA (setting [1]), 0%; in the experiment with DIGSA (22 DAA, 280 g ai/ha alone), 0%; in the experiment on DIGSA (setting [2]), 0%; in the experiment on DIGSA (22 DAA, 560 g ai/ha alone), 0%; in the experiment with DIGSA (setting [3]), 0%. Further, the “Visual Weed Control (%) - 22 DAA ECHCG Obs” value in the experiment with ECHCG (140 g ai/ha alone), in the experiment on ECHCG (280 g ai/ha alone) and with ECHCG (560 g ai/ha alone) was 0% throughout. The “Visual Weed Control (%) - 22 DAA LEFPA Obs” value with LEFPA (140 g ai/ha alone), with LEFPA (280 g ai/ha alone) and in the experiment on LEFPA (560 g ai/ha alone) was 0% each time. For the same compound, the pest or weed control at 140 g/ha with LEFCH (22 DAA, 140 g ai/ha alone) stood at 0%; with LEFCH (setting [1]), 0%. Moreover, the pest or weed control at 280 g/ha was determined as 0% with LEFCH (22 DAA, 280 g ai/ha alone) and 0% with LEFCH (setting [2]). Also, the pest or weed control at 560 g/ha in the experiment on LEFCH (22 DAA, 560 g ai/ha alone) is 0%; with LEFCH (setting [3]), 0%. In addition, the “Visual Weed Control (%) - 22 DAA LEFFA Obs” value in the experiment with LEFFA (140 g ai/ha alone), with LEFFA (280 g ai/ha alone) and in the experiment with LEFFA (560 g ai/ha alone) was 0% throughout.

Take `CCCCOCCOCCOCc1cc2c(cc1CCC)OCO2` [Piperonyl Butoxide, 5-[[2-(2-butoxyethoxy)ethoxy]methyl]-6-propyl-1,3-benzodioxole]: the “Visual Weed Control (%) - 22 DAA DIGSA Obs” value in the experiment on DIGSA (in vivo) amounted to 0%. In addition, the “Visual Weed Control (%) - 22 DAA LEFPA Obs” value in the experiment on LEFPA (140 g ai/ha alone) amounted to 0%; in the experiment with LEFPA (280 g ai/ha alone), 5%; in the experiment on LEFPA (560 g ai/ha alone), 0%. For the same compound, in the experiment with LEFCH, the pest or weed control at 140 g/ha came to 0%. For the same compound, the pest or weed control at 280 g/ha with LEFCH was 0%. Moreover, the pest or weed control at 560 g/ha in the experiment with LEFCH was found to be 0%. In addition, the “Visual Weed Control (%) - 22 DAA LEFFA Obs” value is recorded as 0% in the experiment on LEFFA (140 g ai/ha alone), 5% in the experiment on LEFFA (280 g ai/ha alone) and 0% in the experiment with LEFFA (560 g ai/ha alone).
